Patent US7759373B2, “Large conductance calcium-activated K channel opener” (Mitsubishi Tanabe Pharma Corporation, priority 2001, dated 2010)

System: rhythmic bladder contractions induced by substance P
Test: Inhibitory effect on the rhythmic bladder contractions induced by substance P in anesthetized rats
Format: in vivo, rat
Conditions: time during which frequency of rhythmic contraction was completely inhibited, 0.25 mg/kg of the compound, substance P infusion
Description: Inhibitory effect on the rhythmic bladder contractions induced by substance P in anesthetized rats
For the experiments, Sprague-Dawley female rats (9 to 12 weeks old) weighing between 200 to 300 g were used. After urethane anesthetization (subcutaneously administered with a dose of 1.2 g/kg), cannulae were placed in both right and left femoral veins. One intravenous catheter was used for administration of compounds, and the other was for the substance P (0.33 μg/kg/min) infusion. We also cannulated into ureter to pass urine. Polyethylene catheters were inserted into carotid artery for continuous monitoring of arterial blood pressure and heart rate. For continuous infusion, transurethral bladder catheter was inserted into the bladder through the urethra and tied in place by a ligature around the urethral orifice. One end of the catheter was attached to a pressure transducer in order to measure intravesical pressure. The other end of the catheter was used for infusion of saline into the bladder. After stabilization of blood pressure and heart rate and after the bladder was emptied, cystometry was performed by filling the bladder slowly with about 0.6 ml of saline. After about 10 minutes, intravenous infusion of substance P (0.33 μg/kg/min) was started for stabilization of the micturition reflex. Compounds were administered after stable rhythmic bladder contraction was obtained over 15 minutes. All compounds were dissolved or suspended in saline containing 0.5% Tween 80 for intravenous administration (0.1 ml/kg).
A 100% inhibition time (minute) of the selected compounds of the present invention is shown in the following Table 65 with a rank of A, B or C. These ranges are as mentioned below. A≧20>B≧10>C (minute)

Structure (SMILES): Cc1ccc(-c2nc(CC(=O)O)c(-c3cccs3)o2)cc1 [Preparation Example 156]
- 100% inhibition time range: B (A≧20>B≧10>C (minute))

Structure (SMILES): O=C(O)Cc1nc(-c2ccc(F)cc2)oc1-c1cccs1 [Preparation Example 614]
- 100% inhibition time range: C (A≧20>B≧10>C (minute))

Structure (SMILES): COCc1nc(-c2ccc(F)cc2)[nH]c1-c1ccsc1 [Preparation example 122]
- 100% inhibition time range: B (A≧20>B≧10>C (minute))

Structure (SMILES): CCc1nc(-c2ccc(C)nc2)[nH]c1-c1ccccc1 [Preparation example 28]
- 100% inhibition time range: B (A≧20>B≧10>C (minute))

Structure (SMILES): O=C(O)Cc1sc(-c2ccc(F)cc2)nc1-c1cccs1 [Preparation Example 577]
- 100% inhibition time range: B (A≧20>B≧10>C (minute))

Structure (SMILES): CCOc1c(F)cc(-c2oc(-c3ccc(F)cc3)nc2CC(=O)O)cc1OC [Preparation Example 251]
- 100% inhibition time range: C (A≧20>B≧10>C (minute))

Structure (SMILES): CNc1[nH]c(-c2ccc(F)cc2)nc1-c1ccccc1 [Preparation example 107, 5-methylamino-2-(4-fluorophenyl)-4-phenylimidazole]
- 100% inhibition time range: B (A≧20>B≧10>C (minute))

Structure (SMILES): COc1ccc(-c2oc(-c3ccc(F)cc3)nc2CC(=O)O)cc1F [Preparation Example 250]
- 100% inhibition time range: B (A≧20>B≧10>C (minute))

Structure (SMILES): CS(=O)(=O)Nc1nc(-c2ccc(F)cc2)oc1-c1ccc(Cl)c(F)c1.[Na] [Preparation Example 348, 5-(4-chloro-3-fluorophenyl)-2-(4-fluorophenyl)oxazol-4-yl methanesulfonamide sodium salt]
- 100% inhibition time range: C (A≧20>B≧10>C (minute))

Structure (SMILES): N#CCCc1nc(-c2ccc(F)cc2)oc1-c1cccs1 [Preparation Example 337, 4-(2-cyanoethyl)-2-(4-fluorophenyl)-5-(2-thienyl)oxazole]
- 100% inhibition time range: C (A≧20>B≧10>C (minute))

Structure (SMILES): CCc1[nH]c(-c2ccc(F)cc2)nc1C(=O)c1ccccn1 [Preparation example 72, 5-ethyl-2-(4-fluorophenyl)-imidazol-4-yl-(2-pyridyl) ketone]
- 100% inhibition time range: C (A≧20>B≧10>C (minute))

Structure (SMILES): O=C(O)Cc1sc(-c2ccc(Cl)cc2)nc1-c1ccc(Cl)s1 [Preparation Example 588]
- 100% inhibition time range: C (A≧20>B≧10>C (minute))

Structure (SMILES): CSCc1ccc(-c2nc(CC(=O)O)c(-c3ccc(Cl)s3)o2)cc1 [Preparation Example 448]
- 100% inhibition time range: C (A≧20>B≧10>C (minute))

Structure (SMILES): CN(C)c1ccc(-c2nc(CC(=O)O)c(-c3cccs3)o2)cn1 [Preparation Example 259]
- 100% inhibition time range: B (A≧20>B≧10>C (minute))

Structure (SMILES): CCCc1nc(-c2ccc(F)cc2)[nH]c1-c1cccnc1 [Preparation example 93]
- 100% inhibition time range: B (A≧20>B≧10>C (minute))

Structure (SMILES): O=C(O)Cc1nc(-c2cc3ncccc3s2)oc1-c1ccc(Cl)s1 [Preparation Example 470]
- 100% inhibition time range: B (A≧20>B≧10>C (minute))

Structure (SMILES): O=C(O)Cc1nc(-c2ccc(F)cc2)oc1-c1cc2ccccc2o1 [Preparation Example 254]
- 100% inhibition time range: C (A≧20>B≧10>C (minute))

Structure (SMILES): O=C(O)Cc1nc(-c2cc3ccccc3s2)oc1-c1ccc(Cl)c(F)c1 [Preparation Example 447]
- 100% inhibition time range: B (A≧20>B≧10>C (minute))

Structure (SMILES): O=C(O)Cc1[nH]c(-c2cc3ccccc3s2)nc1-c1ccc(Cl)s1 [Preparation Example 351]
- 100% inhibition time range: C (A≧20>B≧10>C (minute))

Structure (SMILES): O=C(O)Cc1nc(-c2ccc(F)cc2)oc1-c1ccccc1F [Preparation Example 162]
- 100% inhibition time range: C (A≧20>B≧10>C (minute))

Structure (SMILES): CS(=O)(=O)Nc1ccccc1-c1oc(-c2ccc(F)cc2)nc1CC(=O)O [Preparation Example 238]
- 100% inhibition time range: C (A≧20>B≧10>C (minute))

Structure (SMILES): O=C(O)Cc1nc(-c2ccc(F)cc2)oc1-c1cccc(O)c1 [Preparation Example 258]
- 100% inhibition time range: C (A≧20>B≧10>C (minute))

Structure (SMILES): CSc1ccc(-c2nc(CC(=O)O)c(-c3ccsc3)o2)cc1 [Preparation Example 440]
- 100% inhibition time range: C (A≧20>B≧10>C (minute))

Structure (SMILES): CN(C)c1cnc(-c2nc(CC(=O)O)c(-c3ccc(Cl)s3)o2)cn1 [Preparation Example 628]
- 100% inhibition time range: C (A≧20>B≧10>C (minute))

Structure (SMILES): C[S+]([O-])Cc1nc(-c2ccc(C#N)cc2)[nH]c1-c1ccccc1 (centres unmarked) [Preparation example 137]
- 100% inhibition time range: C (A≧20>B≧10>C (minute))

Structure (SMILES): Cl.O=C(O)Cc1nc(-c2ccc(F)cc2)oc1-c1cccnc1 [Preparation Example 484, 2-(4-fluoro-phenyl)-5-(3-pyridyl)oxazol-4-yl acetic acid hydrochloride]
- 100% inhibition time range: B (A≧20>B≧10>C (minute))

Structure (SMILES): NC(C(=O)O)c1nc(-c2ccc(F)cc2)oc1-c1ccc(Cl)s1 (centres unmarked) [Preparation Example 627]
- 100% inhibition time range: C (A≧20>B≧10>C (minute))

Structure (SMILES): Cc1ccc(-c2nc(CC(=O)O)c(-c3ccsc3)o2)cc1 [Preparation Example 198]
- 100% inhibition time range: C (A≧20>B≧10>C (minute))

Structure (SMILES): O=C(O)Cc1nc(-c2ccc3c(c2)CCCS3)oc1-c1ccc(Cl)s1 [Preparation Example 456]
- 100% inhibition time range: C (A≧20>B≧10>C (minute))

Structure (SMILES): CCc1[nH]c(-c2cc(Cl)sc2S(=O)(=O)O)nc1-c1cccnc1.Cl.Cl [Preparation example 143, 2-(5-Chloro-2-sulfothiophen-3-yl)-5-ethyl-4-(3-pyridyl)-imidazole dihydrochloride]
- 100% inhibition time range: C (A≧20>B≧10>C (minute))

Structure (SMILES): CCc1[nH]c(-c2cc(Cl)sc2S(N)(=O)=O)nc1-c1cccnc1.Cl.Cl [Preparation example 144, 2-(5-Chloro-2-sulfamoylthiophen-3-yl)-5-ethyl-4-(3-pyridyl) imidazole dihydrochloride]
- 100% inhibition time range: C (A≧20>B≧10>C (minute))

Structure (SMILES): O=C(O)Cc1nc(-c2ccc(F)cc2)oc1-c1ccco1 [Preparation Example 270]
- 100% inhibition time range: B (A≧20>B≧10>C (minute))

Structure (SMILES): COc1ccc(-c2nc(CC(=O)O)c(-c3ccc(Cl)s3)o2)cc1O [Preparation Example 290]
- 100% inhibition time range: B (A≧20>B≧10>C (minute))

Structure (SMILES): O=C(Cc1nc(-c2ccc(F)cc2)oc1-c1ccsc1)NS(=O)(=O)c1cccnc1 [Preparation Example 371]
- 100% inhibition time range: C (A≧20>B≧10>C (minute))

Structure (SMILES): O=C(O)Cc1nc(-c2ccc(F)cc2)oc1-c1ccc2ncccc2c1 [Preparation Example 239]
- 100% inhibition time range: C (A≧20>B≧10>C (minute))

Structure (SMILES): OCc1[nH]c(-c2csc(Cl)c2)nc1-c1cccnc1 [Preparation Example 482, 2-(5-chloro-thiophen-3-yl)-5-hydroxymethyl-4-(3-pyridyl)imidazole]
- 100% inhibition time range: C (A≧20>B≧10>C (minute))

Structure (SMILES): Cl.Cl.N#CCCc1[nH]c(-c2ccc(F)cc2)nc1-c1cccnc1 [Preparation example 43, 5-(2-cyanoethyl)-2-(4-fluorophenyl)-4-(3-pyridyl)-imidazole dihydrochloride]
- 100% inhibition time range: C (A≧20>B≧10>C (minute))

Structure (SMILES): O=C(O)Cc1nc(-c2ccc(F)cc2)oc1-c1cccc(F)c1 [Preparation Example 236]
- 100% inhibition time range: C (A≧20>B≧10>C (minute))

Structure (SMILES): Cn1c(-c2nc(CC(=O)O)c(-c3ccc(Cl)s3)o2)cc2ccccc21 [Preparation Example 472]
- 100% inhibition time range: A (A≧20>B≧10>C (minute))

Structure (SMILES): O=C(O)Cc1nc(-c2ccc3ncccc3c2)oc1-c1ccsc1 [Preparation Example 442]
- 100% inhibition time range: C (A≧20>B≧10>C (minute))

Structure (SMILES): COc1ccc(-c2nc(CC(=O)O)c(-c3ccc(Cl)s3)o2)cn1 [Preparation Example 368]
- 100% inhibition time range: B (A≧20>B≧10>C (minute))
